Assays:
[1] = target: T1, human SGLT2 (Homo sapiens, UniProt P31639); assay: SGLT2 assay: Na-dependent 14C-AMG uptake in CHO-K1 cells stably expressing human SGLT2; format: cell-based; conditions: for IC50: 500 μM AMG, 2 hours at 37° C.
T1 construct: expressed in transfected cells; host or cells: CHO-K1
T1 sequence (P31639 1-672): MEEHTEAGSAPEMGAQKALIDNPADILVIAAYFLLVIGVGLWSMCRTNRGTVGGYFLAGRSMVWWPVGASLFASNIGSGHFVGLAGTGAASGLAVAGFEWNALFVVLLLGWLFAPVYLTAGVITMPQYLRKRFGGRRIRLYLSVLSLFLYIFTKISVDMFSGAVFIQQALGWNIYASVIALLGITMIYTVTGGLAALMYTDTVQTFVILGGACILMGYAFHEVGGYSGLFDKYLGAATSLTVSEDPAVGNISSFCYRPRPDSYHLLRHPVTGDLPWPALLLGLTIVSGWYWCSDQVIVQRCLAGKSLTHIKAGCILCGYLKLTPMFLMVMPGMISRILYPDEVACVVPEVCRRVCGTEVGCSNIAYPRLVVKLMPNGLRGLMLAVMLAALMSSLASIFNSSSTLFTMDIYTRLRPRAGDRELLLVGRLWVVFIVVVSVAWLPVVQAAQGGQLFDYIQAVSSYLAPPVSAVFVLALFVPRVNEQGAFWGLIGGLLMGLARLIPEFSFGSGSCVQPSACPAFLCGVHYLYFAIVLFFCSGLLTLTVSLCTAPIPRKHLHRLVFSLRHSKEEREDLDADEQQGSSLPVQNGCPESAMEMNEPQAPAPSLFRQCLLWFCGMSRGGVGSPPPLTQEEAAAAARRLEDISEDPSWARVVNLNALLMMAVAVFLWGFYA
Method: (§1) SGLT1 and SGLT2 were cloned in form of cDNA from human small intestine (Genbank M24847), and from human kidney (Genbank M95549), respectively. Subsequently, each full cDNA was subcloned into pcDNA with each construct's integrity verified through follow-on sequencing. To generate CHO-K1 cells that stably express human SGLT1 or human SGLT2, CHO-K1 cells were transfected using DMRIE-C reagent (Life Technologies, Gaithersburg, Md.). Transfected cells were then selected in the presence of 500 μg/ml of the Geneticin (G418 Cellgro Catalog No. 30234-CI)
(§2) Individual clones were then characterized using the following cell-based assay for sodium-dependent glucose transport:
(§3) Inhibition of SGLT1 and SGLT2 activity was assessed in CHO K1 cells stably expressing either human SGLT1 or SGLT2, using the SGLT specific glucose analog methyl-glucopyranoside (Sigma Catalog No. M-9376). Cells were plated (45,000 cells/well) in white wall 96-well plates (COSTAR, Cat#3903) for 24 hours in growth medium, then a final concentration of 10 mM Na-Butyrate (ALDRICH Cat#30341-0) was added. The cells were incubated for 24 hours. On the day of the assay, cells were rinsed and treated with test compounds (at concentrations of 0.001 μM to 10 μM) in assay buffer (50 mM HEPES, 20 mM Tris base, 5 mM KCl, 1 mM MgCl2, 1 mM CaCl2 and 137 mM NaCl, pH 7.4) for 10 minutes. Cells were then incubated with ^14C-a-methyl-d-glucopyranoside (AMG, Amersham Catalog No. CFB 76), using 0.07 μCi per well in 500 μM AMG final concentration. The cells were incubated for 2 hours at 37° C. with 5% CO2 and washed two times with ice-cold Phosphate Buffer Solution (Cellgro Catalog No. 21030-CV). The cells were then solubilized by adding 60 μl of MICROSCINT™20 and the Na-dependent ^14C-AMG uptake was quantified by measuring radioactivity. Plates were counted in a TopCount (Packard, Meriden, Conn.)

[2] = target: T2, human SGLT1 (Homo sapiens, UniProt P13866); assay: SGLT1 assay: Na-dependent 14C-AMG uptake in CHO-K1 cells stably expressing human SGLT1; format: cell-based; conditions: for IC50: 500 μM AMG, 2 hours at 37° C.
T2 construct: expressed in transfected cells; host or cells: CHO-K1
T2 sequence (P13866 1-664): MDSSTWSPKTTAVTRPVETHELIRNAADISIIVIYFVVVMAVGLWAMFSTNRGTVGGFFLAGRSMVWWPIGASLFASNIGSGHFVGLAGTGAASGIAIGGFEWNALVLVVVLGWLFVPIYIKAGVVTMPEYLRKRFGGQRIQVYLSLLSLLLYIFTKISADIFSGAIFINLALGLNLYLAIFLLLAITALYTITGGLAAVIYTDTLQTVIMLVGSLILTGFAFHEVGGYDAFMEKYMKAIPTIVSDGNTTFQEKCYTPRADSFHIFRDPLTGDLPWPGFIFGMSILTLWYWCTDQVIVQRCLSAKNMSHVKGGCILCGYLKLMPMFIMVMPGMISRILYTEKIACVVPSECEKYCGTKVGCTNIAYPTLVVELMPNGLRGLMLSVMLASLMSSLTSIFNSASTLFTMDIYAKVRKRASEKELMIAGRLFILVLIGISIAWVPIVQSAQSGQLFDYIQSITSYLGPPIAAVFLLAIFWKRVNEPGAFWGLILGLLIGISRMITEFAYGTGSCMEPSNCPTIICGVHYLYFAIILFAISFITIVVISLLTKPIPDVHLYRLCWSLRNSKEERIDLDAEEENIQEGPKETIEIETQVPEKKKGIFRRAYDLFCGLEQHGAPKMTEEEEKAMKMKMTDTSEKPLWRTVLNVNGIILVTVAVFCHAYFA
Method: as §1, §2, §3

IC50 [1] [nM] | IC50 [2] [nM] | inhibition at 0.03 µM [1] [%] | inhibition at 0.3 µM [2] [%] | Structure (SMILES)
1 | 29 | – | – | Cc1cc(Cc2ccc3c(c2)CC3)cc([C@@H]2O[C@H](CO)[C@@H](O)[C@H](O)[C@H]2O)c1O [Compound 27, (2S,3R,4R,5S,6R)-2-(5-((1,2-dihydrocyclobutabenzen-4-yl)methyl)-2-hydroxy-3-methylphenyl)-6-(hydroxymethyl)-tetrahydro-2H-pyran-3,4,5-triol]
– | – | 40 | 50 | Cc1c(Cc2ccc3c(c2)CC3)ccc(O)c1[C@@H]1O[C@H](CO)[C@@H](O)[C@H](O)[C@H]1O [Compound 28, (2S,3R,4R,5S,6R)-2-(3-((1,2-dihydrocyclobutabenzen-4-yl)methyl)-6-hydroxy-2-methylphenyl)-6-(hydroxymethyl)-tetrahydro-2H-pyran-3,4,5-triol]
3 | 92 | – | – | Cc1cc(F)c([C@@H]2O[C@H](CO)[C@@H](O)[C@H](O)[C@H]2O)cc1Cc1ccc2c(c1)CC2 [Compound 29, (2S,3R,4R,5S,6R)-2-(5-[bicyclo[4.2.0]octa-1,3,5-trien-3-ylmethyl]-2-fluoro-4-methylphenyl)-6-(hydroxymethyl)oxane-3,4,5-triol]
3 | 206 | – | – | OC[C@H]1O[C@@H](c2cc(Cc3ccc4c(c3)CC4)c(Cl)cc2F)[C@H](O)[C@@H](O)[C@@H]1O [Compound 30, (2S,3R,4R,5S,6R)-2-(4-chloro-5-((1,2-dihydrocyclobutabenzen-4-yl)methyl)-2-fluorophenyl)-6-(hydroxymethyl)-tetrahydro-2H-pyran-3,4,5-triol]
10 | 84 | – | – | COc1cc(F)c([C@@H]2O[C@H](CO)[C@@H](O)[C@H](O)[C@H]2O)cc1Cc1ccc2c(c1)CC2 [Compound 31, (2S,3R,4R,5S,6R)-2-(5-((1,2-dihydrocyclobutabenzen-4-yl)methyl)-2-fluoro-4-methoxyphenyl)-6-(hydroxymethyl)-tetrahydro-2H-pyran-3,4,5-triol]
3 | 10 | – | – | CCc1cc(F)c([C@@H]2O[C@H](CO)[C@@H](O)[C@H](O)[C@H]2O)cc1Cc1ccc2c(c1)CC2 [Compound 32, (2S,3R,4R,5S,6R)-2-(5-((1,2-dihydrocyclobutabenzen-4-yl)methyl)-4-ethyl-2-fluorophenyl)-6-(hydroxymethyl)-tetrahydro-2H-pyran-3,4,5-triol]
– | – | 57 | 23 | Cc1cc(OC(F)(F)F)c([C@@H]2O[C@H](CO)[C@@H](O)[C@H](O)[C@H]2O)cc1Cc1ccc2c(c1)CC2 [Compound 33, (2S,3R,4R,5S,6R)-2-(5-((1,2-dihydrocyclobutabenzen-4-yl)methyl)-4-methyl-2-(trifluoromethoxy)phenyl)-6-(hydroxymethyl)-tetrahydro-2H-pyran-3,4,5-triol]
– | – | 72 | 24 | COc1cc(OC(F)(F)F)c([C@@H]2O[C@H](CO)[C@@H](O)[C@H](O)[C@H]2O)cc1Cc1ccc2c(c1)CC2 [Compound 34, (2S,3R,4R,5S,6R)-2-(5-((1,2-dihydrocyclobutabenzen-4-yl)methyl)-4-methoxy-2-(trifluoromethoxy)phenyl)-6-(hydroxymethyl)-tetrahydro-2H-pyran-3,4,5-triol]
– | – | 45 | 29 | CCc1cc(OC(F)(F)F)c([C@@H]2O[C@H](CO)[C@@H](O)[C@H](O)[C@H]2O)cc1Cc1ccc2c(c1)CC2 [Compound 35, (2S,3R,4R,5S,6R)-2-(5-((1,2-dihydrocyclobutabenzen-4-yl)methyl)-4-ethyl-2-(trifluoromethoxy)phenyl)-6-(hydroxymethyl)-tetrahydro-2H-pyran-3,4,5-triol]
– | – | 84 | 26 | Cc1cc(OC(F)F)c([C@@H]2O[C@H](CO)[C@@H](O)[C@H](O)[C@H]2O)cc1Cc1ccc2c(c1)CC2 [Compound 36, 2S,3R,4R,5S,6R)-2-(5-([bicyclo[4.2.0]octa-1(6),2,4-trien-3-ylmethyl]-2-(difluoromethoxy)-4-methylphenyl)-6-(hydroxymethyl)oxane-3,4,5-triol]
– | – | 84 | 20 | OC[C@H]1O[C@@H](c2cc(Cc3ccc4c(c3)CC4)c(Cl)cc2OC(F)F)[C@H](O)[C@@H](O)[C@@H]1O [Compound 37, (2S,3R,4R,5S,6R)-2-(4-chloro-2-(difluoromethoxy)-5-((1,2-dihydrocyclobutabenzen-4-yl)methyl)phenyl)-6-(hydroxymethyl)-tetrahydro-2H-pyran-3,4,5-triol]
– | – | 78 | 20 | COc1cc(OC(F)F)c([C@@H]2O[C@H](CO)[C@@H](O)[C@H](O)[C@H]2O)cc1Cc1ccc2c(c1)CC2 [Compound 38, (2S,3R,4R,5S,6R)-2-(2-(difluoromethoxy)-5-((1,2-dihydrocyclobutabenzen-4-yl)methyl)-4-methoxyphenyl)-6-(hydroxymethyl)-tetrahydro-2H-pyran-3,4,5-triol]
13 | 27 | – | – | Cc1cc(OCF)c([C@@H]2O[C@H](CO)[C@@H](O)[C@H](O)[C@H]2O)cc1Cc1ccc2c(c1)CC2 [Compound 39, (2S,3R,4R,5S,6R)-2-(5-[bicyclo[4.2.0]octa-1(6),2,4-trien-3-ylmethyl]-2-(fluoromethoxy)-4-methylphenyl)-6-(hydroxymethyl)oxane-3,4,8-triol]
1 | 149 | – | – | OC[C@H]1O[C@@H](c2cc(Cc3ccc4c(c3)CC4)c(Cl)cc2OCF)[C@H](O)[C@@H](O)[C@@H]1O [Compound 40, (2S,3R,4R,5S,6R)-2-(4-chloro-5-((1,2-dihydrocyclobutabenzen-4-yl)methyl)-2-(fluoromethoxy)phenyl)-6-(hydroxymethyl)-tetrahydro-2H-pyran-3,4,5-triol]
18 | 106 | – | – | COc1cc(OCF)c([C@@H]2O[C@H](CO)[C@@H](O)[C@H](O)[C@H]2O)cc1Cc1ccc2c(c1)CC2 [Compound 41, (2S,3R,4R,5S,6R)-2-(5-((1,2-dihydrocyclobutabenzen-4-yl)methyl)-2-(fluoromethoxy)-4-methoxyphenyl)-6-(hydroxymethyl)-tetrahydro-2H-pyran-3,4,5-triol]
2 | 34 | – | – | CCc1cc(OCF)c([C@@H]2O[C@H](CO)[C@@H](O)[C@H](O)[C@H]2O)cc1Cc1ccc2c(c1)CC2 [Compound 42, (2S,3R,4R,5S,6R)-2-(5-((1,2-dihydrocyclobutabenzen-4-yl)methyl)-4-ethyl-2-(fluoromethoxy)phenyl)-6-(hydroxymethyl)-tetrahydro-2H-pyran-3,4,5-triol]
1 | 35 | – | – | [2H]C([2H])(c1ccc2c(c1)CC2)c1cc([C@@H]2O[C@H](CO)[C@@H](O)[C@H](O)[C@H]2O)ccc1C [Compound 51]

— patent US10815210B2, “Benzocyclobutane derivatives useful as dual SGLT1 / SGLT2 modulators” (Janssen Pharmaceutica NV, priority 2016, dated 2020)
